Results taken from the supplement of paper PMC10307832.

Key:
Assay in all cases: relative viability (nuclei count vs DMSO), 5 days (fraction); higher = more cells survive
QS11 = compound: C1CC2=C(C1)C=C(C=C2)OC3=NC(=C4C(=N3)N(C=N4)CC5=CC=C(C=C5)C6=CC=CC=C6)N[C@@H](CC7=CC=CC=C7)CO [QS11]
How it was run: (§1)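 Five library-drug doses spaced by √10 were pinned onto vehicle-anchored 1536-well plates of lung cancer cell lines that had been kept overnight at 37 °C. Cells went 5 days without medium change, then were fixed, permeabilised and Hoechst-stained together, imaged at 4× and counted by MetaXpress. Viability is the ratio of treated-well to vehicle-well nuclei, taken as a median over plates. Plates required control CV below 25% and at least one doubling.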

AZ628 = compound: CC1=C(C=C(C=C1)NC(=O)C2=CC(=CC=C2)C(C)(C)C#N)NC3=CC4=C(C=C3)N=CN(C4=O)C [AZ628]
How it was run: as §1

Darinaparsin = compound: C[As](C)SC[C@H](NC(=O)CC[C@H](N)C(=O)O)C(=O)NCC(=O)O [Darinaparsin]
How it was run: as §1

QS11 + Alpelisib = compound: C1CC2=C(C1)C=C(C=C2)OC3=NC(=C4C(=N3)N(C=N4)CC5=CC=C(C=C5)C6=CC=CC=C6)N[C@@H](CC7=CC=CC=C7)CO [QS11] + Cc1nc(NC(=O)N2CCC[C@H]2C(N)=O)sc1-c1ccnc(C(C)(C)C(F)(F)F)c1 [Alpelisib] (partner 2 µM)
How it was run: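 Relative viability is defined as nuclei in treated wells over nuclei in vehicle wells. Duplicate plates were run and medians reported. Lung cancer cell lines in 1536-well plates were dosed by pin tool one day after seeding, with one drug or with a fixed anchor-drug dose plus five library-drug doses (not always all listed) in √10 steps, and nuclei were counted after 5 days.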

Cell Line	relative viability (QS11; 0.08 µM)	relative viability (QS11; 0.253 µM)	relative viability (QS11; 0.8 µM)	relative viability (QS11; 2.53 µM)	relative viability (QS11; 8 µM)	relative viability (AZ628; 0.08 µM)	relative viability (AZ628; 0.253 µM)	relative viability (AZ628; 0.8 µM)	relative viability (AZ628; 2.53 µM)	relative viability (AZ628; 8 µM)	relative viability (Darinaparsin; 0.08 µM)	relative viability (Darinaparsin; 0.8 µM)	relative viability (Darinaparsin; 2.53 µM)	relative viability (Darinaparsin; 8 µM)	relative viability (QS11 + Alpelisib; first compound 0.08 µM)	relative viability (QS11 + Alpelisib; first compound 0.253 µM)	relative viability (QS11 + Alpelisib; first compound 0.8 µM)	relative viability (QS11 + Alpelisib; first compound 2.53 µM)	relative viability (QS11 + Alpelisib; first compound 8 µM)
NCI-H1793	0.866	0.807	1.05	1.07	1.09	1.1	0.829	0.957	0.783	0.61	0.981	0.934	0.707	1.02	0.719	0.645	0.637	0.827	0.791
HARA	0.931	0.875	–	1.02	0.995	0.978	0.962	0.825	0.974	0.563	1.08	0.88	0.914	1.04	0.691	0.944	–	0.872	0.917
NCI-H2347	0.938	1.05	0.873	0.906	0.906	0.775	0.895	0.854	0.76	0.485	1.05	0.961	0.994	1.19	1.11	1.06	0.929	0.918	1.21
ABC-1	1	0.957	0.895	1.17	1.15	1.12	0.727	0.873	0.793	0.767	0.952	0.956	0.928	0.968	0.89	1.02	0.932	0.945	1.21
NCI-H2342	0.888	1.02	1.07	0.998	0.998	1.1	0.898	1.02	0.935	0.995	0.953	0.888	0.939	1.08	–	–	–	–	–
NCI-H2126	0.994	0.944	0.905	0.965	0.799	1.04	1	0.888	1.02	0.985	1.1	1.03	0.956	1.12	0.74	0.794	0.708	0.75	0.731
HOP-62	1.06	1.09	0.867	0.922	0.88	1.07	1.07	0.937	1.09	0.573	1.07	1.08	0.95	1.08	0.968	0.927	0.956	0.85	0.535
NCI-H2085	0.946	0.953	0.968	1	1.09	1.08	0.98	1	1.03	0.882	0.998	0.985	0.958	0.999	0.922	1	1.02	1.06	1.12
NCI-H1944	0.999	0.947	–	0.958	0.884	1.06	0.917	0.792	0.729	0.727	1	0.997	0.959	1.14	0.794	0.896	–	0.826	0.846
EMC-BAC-2	1.02	0.964	0.86	0.986	0.79	1.05	1	1.04	1.07	1.09	1.18	0.942	1.04	1.01	0.802	0.698	0.887	0.759	0.594
NCI-H2228	0.902	1.01	0.97	1.09	1.32	0.994	1.16	0.968	1.02	0.84	1.39	1.18	0.915	1.35	0.705	0.854	0.762	1.14	1.11
A-427	0.862	1.05	–	1.05	1.04	0.999	0.891	0.884	0.919	0.436	1.1	0.96	1.03	1.13	1.03	1.16	–	1.06	1.11
EPLC-272H	0.698	1.02	0.949	0.995	0.908	0.955	0.848	0.971	0.953	0.628	0.8	0.841	0.902	0.992	0.931	0.934	1.04	1.04	1.1
A549	0.974	0.971	0.829	0.912	0.927	1.02	0.865	0.787	0.897	0.452	1	0.987	0.991	1.21	0.912	0.757	0.691	0.451	0.215
NCI-H358	0.92	0.99	1.11	1.37	1.01	0.846	0.654	0.598	0.583	0.435	1.07	0.872	0.832	0.984	0.914	0.857	1.02	1.5	1.35
NCI-H2009	1.03	1.01	0.756	0.902	0.894	0.948	0.933	0.598	0.711	0.379	1.12	1.03	0.949	1.03	1.18	1.19	1.12	0.969	0.999
HCC-827	1	1.13	0.813	1.02	0.931	1.03	1.01	1.03	1.07	0.839	1.09	1.02	1.07	1.16	0.907	1.02	0.931	1.05	1.01
NCI-H322M	0.923	0.904	0.998	1.15	1.41	1.1	0.952	0.986	0.95	0.788	1.02	0.951	0.767	1.03	0.84	0.83	0.87	0.863	0.867

Cell Line	relative viability (QS11; 0.08 µM)	relative viability (QS11; 0.253 µM)	relative viability (QS11; 0.8 µM)	relative viability (QS11; 2.53 µM)	relative viability (QS11; 8 µM)	relative viability (AZ628; 0.08 µM)	relative viability (AZ628; 0.253 µM)	relative viability (AZ628; 0.8 µM)	relative viability (AZ628; 2.53 µM)	relative viability (AZ628; 8 µM)	relative viability (Darinaparsin; 0.08 µM)	relative viability (Darinaparsin; 0.8 µM)	relative viability (Darinaparsin; 2.53 µM)	relative viability (Darinaparsin; 8 µM)	relative viability (QS11 + Alpelisib; first compound 0.08 µM)	relative viability (QS11 + Alpelisib; first compound 0.253 µM)	relative viability (QS11 + Alpelisib; first compound 0.8 µM)	relative viability (QS11 + Alpelisib; first compound 2.53 µM)	relative viability (QS11 + Alpelisib; first compound 8 µM)
NCI-H1755	1.03	0.983	0.638	0.861	0.783	0.992	1.02	0.97	0.989	0.948	1.12	0.964	0.945	1.13	1.07	0.947	0.632	0.835	0.857
LU99A	0.868	0.99	1.02	1.02	0.834	0.883	0.807	0.875	1.03	0.65	0.929	1.05	0.991	1.09	0.486	0.528	0.596	0.367	0.405
HCC-44	1.07	0.913	0.735	0.969	0.83	1.02	1.03	0.988	0.987	0.984	0.964	0.957	0.987	0.996	0.837	0.755	0.659	0.728	0.476
EBC-1	1.06	1.05	0.934	0.97	0.92	0.955	0.958	0.983	0.911	0.625	1.2	0.971	0.935	1.05	0.932	0.77	0.76	0.816	0.667
NCI-H647	0.979	0.856	0.917	0.956	0.769	1.01	0.962	0.798	0.936	0.732	1.08	0.962	0.896	1.26	1.24	1.25	1.02	1.08	0.862
NCI-H1734	0.99	1.01	0.945	0.874	0.725	1.08	0.974	0.919	0.913	0.514	1.06	0.993	0.971	1.16	0.681	0.719	0.697	0.581	0.65
NCI-H1993	1.02	0.884	0.918	0.992	0.824	0.995	0.848	0.835	0.735	0.515	1.02	0.885	1.03	0.922	0.559	0.643	0.693	0.699	0.668
NCI-H23	0.995	0.85	0.832	0.832	0.831	1.01	0.838	0.721	0.799	0.543	1.06	0.843	1.11	1.14	0.647	0.638	0.557	0.508	0.69
NCI-H1623	0.912	1.03	0.862	0.871	1.04	0.992	0.979	0.604	0.858	0.615	0.925	1.06	0.975	1.02	–	–	–	–	–
NCI-H1355	0.933	0.918	0.769	0.981	0.986	1.02	0.975	0.956	0.938	0.781	1.06	0.939	0.865	1.1	0.776	0.748	0.779	0.689	0.763
NCI-H2170	1.04	1	0.728	1.05	1.2	1.01	0.964	0.936	1.02	0.983	1.11	0.978	0.845	1.18	0.785	0.907	0.833	0.791	1.16
NCI-H2405	0.976	0.992	0.875	1.09	1.07	0.724	0.476	0.612	0.67	0.558	1.09	0.926	0.975	1.04	0.709	0.745	0.884	0.998	0.902
SW 900	0.705	0.688	0.809	0.663	0.521	1.13	0.865	1.14	0.803	0.889	0.965	0.669	0.994	0.942	–	–	–	–	–
NCI-H522	0.872	0.96	0.934	0.944	0.875	0.922	0.827	0.755	1.11	0.815	0.969	0.992	0.972	1.07	–	–	–	–	–
NCI-H1650	0.941	0.786	0.72	0.962	0.867	1.13	1.1	1.09	0.904	0.888	0.971	0.951	0.833	1.03	–	–	–	–	–
ChaGo-K-1	–	1	1.11	1.09	1.14	1.14	0.965	0.984	1.06	1.01	1.07	1.01	0.949	1.03	–	–	–	–	–
NCI-H1648	0.748	0.972	0.744	0.978	1.11	1.14	1.08	0.726	0.597	0.641	0.735	0.803	–	0.975	–	–	–	–	–
